System: VSV-SARS-CoV-2-S pseudovirus
Experiment: microbe, parasite or virus in culture
Format: cell-based
Conditions: for EC50: read-out: EC50

Compound	EC50	Max %
CC(C)(C)c1ccc(C(=O)CCCN2CCC(OC(c3ccccc3)c3ccccc3)CC2)cc1 [NCGC00164603]	> 30 µM	
c1ccc(CN(CC2=NCCN2)c2ccccc2)cc1 [NCGC00016613]	> 30 µM	
Clc1ccc(Cn2c(CN3CCCC3)nc3ccccc32)cc1 [NCGC00015243]	> 30 µM	
NC1=NCC2c3ccccc3Cc3ccccc3N12 (stereo not drawn) [NCGC00165791]	> 100 µM	
CN(C)CC/C=C1/c2ccccc2COc2ccc(CC(=O)O)cc21 [NCGC00263532]	> 30 µM	
CN(C)CC[C@@H](c1ccc(Br)cc1)c1ccccn1 [NCGC00162100]	23.3 µM	59.8%
O=C(CCCN1CCN(c2ccc(F)cc2)CC1)NC1c2ccccc2CSc2ccccc21 (stereo not drawn) [NCGC00183837]	> 30 µM	
Cc1cccc(CN2CCN([C@@H](c3ccccc3)c3ccc(Cl)cc3)CC2)c1 [NCGC00018296]	> 30 µM	54.8%
C[C@@H]1O[C@@]2(CS1)CN1CCC2CC1 [NCGC00485995]	17.9 µM	
CN1CCCC(n2nc(Cc3ccc(Cl)cc3)c3ccccc3c2=O)CC1 (stereo not drawn) [NCGC00177979]	4.3 µM	96.4%
CC(C)N1CCN([C@@H](c2ccccc2)c2ccc(Cl)cc2)CC1 [NCGC00347044]	3.6 µM	90.9%
CN(c1nccc(=O)[nH]1)C1CCN(c2nc3ccccc3n2Cc2ccc(F)cc2)CC1 [NCGC00181013]	> 30 µM	
c1ccc2c(c1)Sc1ccccc1N2C[C@H]1CN2CCC1CC2 [NCGC00014679]	1.5 µM	100.0%
Cc1ccc(C(=CCN2CCCC2)c2cccc(C=CC(=O)O)n2)cc1 [NCGC00182053]	> 30 µM	
COc1ccc(CN(CCN(C)C)c2ncccn2)cc1 [NCGC00178145]	> 30 µM	
CN1CCC(OC(c2ccccc2)c2ccccc2)CC1 [NCGC00016395]	5.2 µM	51.1%
CN1CCC(=C2c3ccccc3C=Cc3ccccc32)CC1 [NCGC00015252]	12.3 µM	52.7%

Compound	EC50	Max %
CC(C)c1ccc2oc3nc(N)c(C(=O)O)cc3c(=O)c2c1 [NCGC00167472]		59.8%
CC(CN1c2ccccc2Sc2cccnc21)N(C)C (stereo not drawn) [NCGC00181101]	> 30 µM	
CN(C)CCOC(c1ccc(Cl)cc1)c1ccccn1 (stereo not drawn) [NCGC00166141]	26.3 µM	35.5%
CN(C)CCN(Cc1cccs1)c1ccccn1 [NCGC00015704]	> 30 µM	
COc1ccc(CCN2CCC(Nc3nc4ccccc4n3Cc3ccc(F)cc3)CC2)cc1 [NCGC00016913]	8.4 µM	79.3%
CC(CN(C)C)CN1c2ccccc2S(=O)(=O)c2ccccc21 (stereo not drawn) [NCGC00182075]	> 30 µM	
OC(CCCN1CCCCC1)(c1ccccc1)c1ccccc1 [NCGC00016624]	12.8 µM	57.9%
CCc1ccc2c(c1)N(CC(C)CN(C)C)c1ccccc1S2.Cl (stereo not drawn) [NCGC00014485]	2.8 µM	90.9%
CN1[C@@H]2CC[C@H]1CC(O[C@@H](c1ccccc1)c1ccc(Cl)cc1)C2 (stereo partly drawn) [NCGC00015195]	3.1 µM	100.0%
CC(C)(C(=O)O)c1ccc([C@@H](O)CCCN2CCC(C(O)(c3ccccc3)c3ccccc3)CC2)cc1 [NCGC00015453]	> 30 µM	
CN1CCC(=C2c3ccccc3CC(=O)c3sccc32)CC1 [NCGC00015580]	> 30 µM	
CN(C)CCCN1c2ccccc2Sc2ccc(Cl)cc21 [NCGC00015273]	> 30 µM	
CCOC(=O)N1CCC(=C2c3ccc(Cl)cc3CCc3cccnc32)CC1 [NCGC00015619]	> 30 µM	
C[C@@H]1CN(C2CCC(C#N)(c3ccc(F)cc3)CC2)CC[C@]1(C(=O)O)c1ccccc1.Cl (stereo partly drawn) [NCGC00016939]	> 30 µM	37.9%
CN(C)CCOC(c1ccccc1)c1ccccc1 [NCGC00015335]		17.9%
Clc1ccc(C(c2ccc(Cl)cc2)N2CCNCC2)cc1 [NCGC00354584]	2 µM	100.0%
Cc1ccc(/C(=C/CN2CCCC2)c2ccccn2)cc1 [NCGC00024714]	> 30 µM	
